Here are results for 3 compounds from US12102635B2, “Methods of using protein palmitoylations inhibitors” (priority 2021, dated 2024).

Series [1] concerns SARS-CoV-2 spike protein. In kind it is cell-based.
The target of a further series is T1, yeast homolog of DHHC9 (Saccharomyces cerevisiae, UniProt Q06551).
T1 sequence (Q06551 1-359): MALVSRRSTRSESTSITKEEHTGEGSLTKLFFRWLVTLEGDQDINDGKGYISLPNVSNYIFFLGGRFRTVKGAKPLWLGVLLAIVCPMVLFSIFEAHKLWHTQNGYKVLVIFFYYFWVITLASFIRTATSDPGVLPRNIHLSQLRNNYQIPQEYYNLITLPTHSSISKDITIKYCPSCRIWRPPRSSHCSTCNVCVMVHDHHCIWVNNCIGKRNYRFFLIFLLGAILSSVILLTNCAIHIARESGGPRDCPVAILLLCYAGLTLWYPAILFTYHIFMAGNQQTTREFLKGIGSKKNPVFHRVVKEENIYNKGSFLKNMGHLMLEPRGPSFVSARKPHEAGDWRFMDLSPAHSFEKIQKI
T1 sequence (P41912 1-237 partner): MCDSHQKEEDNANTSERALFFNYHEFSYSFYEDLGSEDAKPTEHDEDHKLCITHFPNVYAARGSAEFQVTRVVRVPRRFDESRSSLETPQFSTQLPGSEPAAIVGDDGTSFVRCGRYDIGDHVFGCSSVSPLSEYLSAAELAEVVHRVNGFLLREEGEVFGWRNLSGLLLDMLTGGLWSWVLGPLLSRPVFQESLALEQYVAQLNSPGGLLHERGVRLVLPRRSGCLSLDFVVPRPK
The note with it: previous screen; cited from earlier work.

The test system of series [2] is SARS-COV-2 spike pseudotyped lentivirus. In kind it is cell-based.
The next series concerns Caco-2 cells. The settings on record: XTT, concentrations below 3 μM, relative to DMSO.
For the next series, the system named is SARS-CoV-2-mNG. The series is classed as cell-based.
For another series, the system named is SARS-CoV-2. In kind it is cell-based.
A further series deals with HEK293T cells. The note with it: for observable toxicity: XTT, concentrations below 3 μM, relative to DMSO.
In series [3] the test system is SARS-CoV-2 spike protein. The series is classed as cell-based, human.
Series [4] concerns SARS-COV-2 spike pseudotyped lentivirus. The series is classed as cell-based. The source holds these as a separate data set.
The next series has as its system GAPDH. The series is classed as cell-based, human. The note with it: 10 μM, HEK293T cells.
Series [5] concerns SARS-COV-2 spike pseudotyped lentivirus. The series is classed as cell-based. This is another data set of the same source.

The structures appear in SMILES notation. Several values for one entry are separate records, joined by “and”; a condition that tells them apart may be missing. Identical values can stand only once.

In the case of `CC(C)Cc1ccc(C(C)CN2CCNC[C@@H]2CCCCN2CCN(CC(C)c3ccc(CC(C)C)cc3)[C@@H](Cc3ccc(O)cc3)C2)cc1` (stereo partly drawn) [Compound 2, 4-(((2S)-1-(2-(4-isobutylphenyl)propyl)-4-(4-((2S)-1-(2-(4-isobutylphenyl)propyl)piperazin-2-yl)butyl)piperazin-2-yl)methyl) phenol], the “reduction of palmitoylation of the spike protein” value in the series with SARS-CoV-2 spike protein [1] was 37%. In addition, on yeast homolog of DHHC9, the inhibition of palmitoylation entry is listed as “low micromolar concentrations”. Also, in [2], the “quantity of pseudovirus released from the producer cells (egress)” value is listed as “do not reduce the quantity of pseudovirus released”. Besides, in the series on Caco-2 cells, the observable toxicity entry was “no observable toxicity”. Further, the mNeonGreen signal result with SARS-CoV-2-mNG was “dose dependent reduction in mNeonGreen signal”. Besides, in the series on SARS-CoV-2, the “reduction viral infection of Vero-E6 cells” value was found to be 60%. Further, in the series on HEK293T cells, the maximal non-toxic concentration was determined as 3 µM and the observable toxicity result was “no observable toxicity”. Also, the “reduction in syncytia formation” value with SARS-CoV-2 spike protein [3] was 58% and 60%.

For the compound `CCCCCCCCCCCCCCC(Br)C(=O)O` (centres unmarked) [Compound 2-BP, 2-bromopalmitic acid, reference compound], in the series on SARS-CoV-2 spike protein [1], the spike palmitoylation result is listed as “inhibited spike palmitoylation”. For the same compound, the “luciferase signal (pseudovirus infection)” value in series [4] is on record as “reduced luciferase signal significantly”. The GAPDH palmitoylation result with GAPDH was “reduced”. For the same compound, the mNeonGreen signal entry with SARS-CoV-2-mNG was “dose dependent reduction in mNeonGreen signal”. Besides, in series [5], the “pseudovirus infection (luciferase)” value is “significant reduction in pseudovirus infection”.

With `CC(C)Cc1ccc(C(C)CN2CCN(CCCC[C@H]3CNCCN3CCc3cc(C(F)(F)F)cc(C(F)(F)F)c3)C[C@@H]2Cc2ccc(O)cc2)cc1` (stereo partly drawn) [Compound 3, 4-(((2S)-4-(4-((S)-1-(3,5-bis(trifluoromethyl)phenethyl)piperazin-2-yl)butyl)-1-(2-(4-isobutylphenyl)propyl)piperazin-2-yl)methyl) phenol], the “reduction of palmitoylation of the spike protein” value with SARS-CoV-2 spike protein [1] is reported as 44%. At yeast homolog of DHHC9, the inhibition of palmitoylation result is given as “low micromolar concentrations”. Further, the “quantity of pseudovirus released from the producer cells (egress)” value in series [2] is reported as “do not reduce the quantity of pseudovirus released”. Also, the observable toxicity result in the series on Caco-2 cells is “no observable toxicity”. Besides, in the series with SARS-CoV-2-mNG, the mNeonGreen signal result was “dose dependent reduction in mNeonGreen signal”. Further, in the series on SARS-CoV-2, the “reduction viral infection of Vero-E6 cells” value is 76%. Also, in the series on HEK293T cells, the maximal non-toxic concentration turned out to be 3 µM and the observable toxicity entry is listed as “no observable toxicity”. The “reduction in syncytia formation” value in the series with SARS-CoV-2 spike protein [3] was 45% and 50%.
